# T1: ZmPIP3 (Zea mays, UniProt Q9XF58)
# T1 construct: plasma membrane swelling assay; insert borders and tag not described
# T1 sequence (Q9XF58 1-284): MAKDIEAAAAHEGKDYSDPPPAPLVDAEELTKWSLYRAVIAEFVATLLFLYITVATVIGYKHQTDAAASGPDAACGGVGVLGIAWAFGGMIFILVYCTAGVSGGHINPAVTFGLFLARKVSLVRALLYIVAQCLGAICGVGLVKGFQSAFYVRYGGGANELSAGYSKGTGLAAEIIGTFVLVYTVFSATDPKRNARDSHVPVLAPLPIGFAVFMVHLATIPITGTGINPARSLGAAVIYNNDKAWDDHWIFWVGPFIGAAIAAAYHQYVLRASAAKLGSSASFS
# Key:
# ZmPIP2 = assay: Osmotic water permeability assay, water channel activity of ZmPIP2 in the presence of cAMP agonists or phosphatase inhibitor; type: cell-based, Zea mays; conditions: cAMP agonists to activate cellular PKA, or protein phosphatase inhibitor
# Protocol: (§1) Xenopus laevis oocytes were prepared and injected as previously described (Daniels et al., 1996). The osmotic water permeability assay was conducted as previously described (Weig et al., 1997).
# A number of studies indicate that the activity of aquaporins may be regulated by phosphorylation. For instance, -TIP, a seed specific vacuolar protein from bean, is phosphorylated in vivo and in vitro and the phosphorylation regulates its water channel activity in Xenopus oocytes (Maurel et al., 1993). […] Water channel activity of ZmPIP2 was tested in the presence of (1) cAMP agonists (8-bromoadenosine 3', 5'-cyclic monophosphate, forksolin and 3-isobutyl-1-methylxanthine) to increase the cytosolic cAMP concentration and activate cellular PKA and (2) protein phosphatase inhibitor okadeic acid.
# ZmPIP3 = molecular target: T1, ZmPIP3; assay: Osmotic water permeability assay (Xenopus oocyte swelling), inhibition of water transport through ZmPIP3; type: cell-based
# Protocol: as §1
# (§2) The biological activity of aquaporins is usually determined with Xenopus oocyte swelling assays (Maurel et al, 1993). MIP cRNA is injected into oocytes and after a 3-day incubation the oocytes are moved to a hypotonic medium. If water channel proteins are present in the plasma membrane, the oocytes swell and burst much faster than the control oocytes. […] The osmotic water permeability coefficient (Pf) of the oocyte membrane increased 8-fold over the control. Mercurial compounds are characteristic inhibitors of many water-channel proteins. Water transport through ZmPIP3 is inhibited 50% by 1 mM mercuric chloride and this inhibition is reversed by the reducing agent -mercaptoethanol.
# Xenopus laevis oocytes [1] = assay: Osmotic water permeability assay of cRNA-injected oocytes (Pf of the oocyte membrane); type: cell-based; conditions: cRNA-injected oocytes moved to hypotonic medium after 3-day incubation; versus control oocytes
# Protocol: as §1, §2
# Xenopus laevis oocytes [2] = assay: Radiolabeled solute uptake assay in ZmPIP2-expressing oocytes; type: cell-based; conditions: 1 mM solute, 21° C., 0, 15 and 30 min
# Protocol: Two to three days after water or mRNA injection, groups of 5 oocytes were incubated at 21° C. in […] of Barth's solution containing 0.1 to 0.5 MBq/ml of the radiolabeled solutes ([^14 C]glycerol, […]; [^14 C]choline, 2.0 GBq/mmol; [^14 C]ethanol, 0.144 GBq/mmol; [^14 C]urea, 2.0 GBq/mmol or [^14 C]labeled amino acid mixture without methionine, 1.85 MBq/ml). Nonradioactive solutes were added to give a 1 mM final concentration. After 0, 15 and 30 min, the oocytes were washed rapidly three times in ice-cold Barth's solution, and individual oocytes were dissolved in 5% SDS for scintillation counting.
# Although many MIP proteins are aquaporin, some of them can transport small neutral solutes, exclusively or in addition to water. For instance, tobacco NtTIPa and NtAQP1 transport glycerol in addition to water (Gerbeau et al., 1999), whilst the bacterial GIpF is a selective glycerol facilitator. Transport essays were performed in ZmPIP2-expressing oocytes with a series of labeled solutes including glycerol, urea, ethanol, choline and amino acids.
molecule,measurement,setting,value
CC(C)Cn1c(=O)n(C)c(=O)c2[nH]cnc21 [3-isobutyl-1-methylxanthine],effect on Pf of ZmPIP2-expressing oocytes,ZmPIP2,None of these treatments affected the Pf
"Nc1ncnc2c1nc(Br)n2[C@@H]1O[C@@H]2COP(=O)(O)O[C@H]2[C@H]1O [8-bromoadenosine 3', 5'-cyclic monophosphate]",effect on Pf of ZmPIP2-expressing oocytes,ZmPIP2,None of these treatments affected the Pf
OCCS [-mercaptoethanol],reversal of mercuric chloride inhibition of ZmPIP3 water transport,ZmPIP3; reducing agent added after 1 mM mercuric chloride inhibition,reversed
C=C[C@@]1(C)CC(=O)[C@]2(O)[C@@]3(C)[C@@H](O)CCC(C)(C)[C@@H]3[C@H](O)[C@H](OC(C)=O)[C@@]2(C)O1 [forksolin],effect on Pf of ZmPIP2-expressing oocytes,ZmPIP2,None of these treatments affected the Pf
[Cl][Hg][Cl] [mercuric chloride],inhibition of water transport through ZmPIP3,"ZmPIP3; 1 mM mercuric chloride, ZmPIP3 cRNA-injected Xenopus oocytes",50%
okadeic acid,effect on Pf of ZmPIP2-expressing oocytes,ZmPIP2,None of these treatments affected the Pf
"AtRD28: plasma membrane AtRD28 aquaporin (Daniels et al., 1994), positive control in oocytes (protein, UniProt P30302 1-285, looked up) Aquaporin PIP2-3: MAKDVEGPDGFQTRDYEDPPPTPFFDAEELTKWSLYRAVIAEFVATLLFLYVTVLTVIGYKIQSDTKAGGVDCGGVGILGIAWAFGGMIFILVYCTAGISGGHINPAVTFGLFLARKVSLIRAVLYMVAQCLGAICGVGFVKAFQSSHYVNYGGGANFLADGYNTGTGLAAEIIGTFVLVYTVFSATDPKRNARDSHVPVLAPLPIGFAVFMVHLATIPITGTGINPARSFGAAVIFNKSKPWDDHWIFWVGPFIGATIAAFYHQFVLRASGSKSLGSFRSAANV",increase of osmotic water permeability coefficient (Pf) of the oocyte membrane over the control,Xenopus laevis oocytes [1],8 fold
"ZmPIP3: maize aquaporin; polypeptide of SEQ ID NO: 4, expressed from cRNA in Xenopus oocytes (protein) MAKDIEAAAAHEGKDYSDPPPAPLVDAEELTKWSLYRAVIAEFVATLLFLYITVATVIGYKHQTDAAASGPDAACGGVGVLGIAWAFGGMIFILVYCTAGVSGGHINPAVTFGLFLARKVSLVRALLYIVAQCLGAICGVGLVKGFQSAFYVRYGGGANELSAGYSKGTGLAAEIIGTFVLVYTVFSATDPKRNARDSHVPVLAPLPIGFAVFMVHLATIPITGTGINPARSLGAAVIYNNDKAWDDHWIFWVGPFIGAAIAAAYHQYVLRASAAKLGSSASFS",increase of osmotic water permeability coefficient (Pf) of the oocyte membrane over the control,Xenopus laevis oocytes [1],8 fold
"ZmPIP2: maize aquaporin designation; polypeptide of SEQ ID NO: 2, expressed from cRNA in Xenopus oocytes (protein) MEGKEEDVRLGANKFSERQPIGTAAQGAADDKDYKEPPPAPLFEPGELKSWSFYRAGIAEFVATFLFLYITILTVMGVSKSTSKCATVGIQGIAWSFGGMIFALVYCTAGISGGHINPAVTFGLFLARKLSLTRALFYIIMQCLGAICGAGVVKGFQQGLYMGNGGGANVVAPGYTKGDGLGAEIVGTFILVYTVFSATDAKRNARDSHVPILAPLPIGFAVFLVHLATIPITGTGINPARSLGAAIIYNRDHAWNDHWIFWVGPFIGAALAAIYHQVIIRAIPFKSR","transport of labeled solutes (glycerol, urea, ethanol, choline, amino acids) versus water-injected oocytes",Xenopus laevis oocytes [2],None of the solutes tested were preferentially transported

# From US6313376A, “Maize aquaporins and uses thereof” (Pioneer Hi-Bred International, Inc., priority 1999, dated 2001)
